Laboratory results taken from patent publication US20240067651A1 (Biohaven Therapeutics Ltd., priority 2019, published 2024).

Assays:
Caco-2 monolayer = experiment: Caco-2 Permeability Assay; format: in vitro ADME, human
How it was run: (§1)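 Bidirectional transport at 37 °C for 90 min, 10 μM donor concentration, with or without Pgp inhibitor, across 21-day Caco-2 monolayers with TEER >600 […] in HEPES-buffered HBSS, pH 7.4. LC-MS/MS of donor and receiver samples gives Papp, B→A/A→B efflux ratio and mass recovery.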

[1] = Stability in Simulated Intestinal Fluid (SIF); format: in vitro ADME; parameters: key: % parent compound remaining relative to 0-minute sample
How it was run: (§2)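 2 μg/mL final; SGF + pepsin pH 1.2 or SIF + pancreatin pH 6.8; 37° C, 150 rpm, 0–60 min. ACN quench with propranolol IS, LC-MS/MS. % parent vs 0 min; t1/2 from ln plot.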

[2] = Stability in Simulated Gastric Fluid (SGF); format: in vitro ADME; parameters: key: % parent compound remaining relative to 0-minute sample
How it was run: as §2

Plasma Stability = format: in vitro ADME, human; settings: human plasma, remaining at 1 h
How it was run: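 Parent compound quantified by LC-MS/MS after acetonitrile precipitation, reported as percent of control remaining (triplicate). Incubation: 1 hour, 37° C, fresh human plasma, compound at 1 μM.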

[3] = Caco-2 Permeability Assay; format: in vitro ADME, human; settings: human, Caco-2, pH 7.4, Caco-2 monolayer
How it was run: as §1

[4] = simulated intestinal fluid, remaining at 1 h
[5] = simulated gastric fluid, remaining at 1 h

| Caco-2 Papp (Caco-2 monolayer; Caco-2 monolayer) [×10⁻⁶ cm/s] | Molecule | SIF [1, 4] [% remaining] | SGF [2, 5] [% remaining] | human Plasma stability (Plasma Stability) [% remaining] | Caco-2 Papp (nm/s) (Caco-2 monolayer) | SIF ([1]; % remaining @ 1 h) [% @ 1 h] | SGF ([2]; % remaining @ 1 h) [% @ 1 h] | Papp at 90 min, 10 µM [3] [×10⁻⁶ cm/s] | SIF ([1]; simulated intestinal fluid, bare number, unit or time not given) |
| --- | --- | --- | --- | --- | --- | --- | --- | --- | --- |
| 0.11 | 1-tert-butyl 2-{4-oxo-1-[2-(propan-2-yloxy)ethyl]-2-sulfanylidene-1H,2H,3H,4H,5H-pyrrolo[3,2-d]pyrimidin-5-yl}methyl (2R)-pyrrolidine-1,2-dicarboxylate [Example 393] | 94 | 99 | 92 |  |  |  |  |  |
|  | CC(C)OCCn1c(=S)n(COC(=O)[C@H](C)N)c(=O)c2c1ccn2CO.O=C(O)C(F)(F)F [Example 290, trifluoroacetic acid [5-(hydroxymethyl)-4-oxo-1-[2-(propan-2-yloxy)ethyl]-2-sulfanylidene-1H,2H,3H,4H,5H-pyrrolo[3,2-d]pyrimidin-3-yl]methyl (2S)-2-aminopropanoate] |  |  |  | unstable | 10 | 98 |  |  |
|  | CSCC[C@H](N)C(=O)OCCCCC(=O)OCn1ccc2c1c(=O)[nH]c(=S)n2CCOC(C)C.O=C(O)C(F)(F)F [Example 353, trifluoroacetic acid {4-oxo-1-[2-(propan-2-yloxy)ethyl]-2-sulfanylidene-1H,2H,3H,4H,5H-pyrrolo[3,2-d]pyrimidin-5-yl}methyl 5-{[(2S)-2-amino-4-(methylsulfanyl)butanoyl]oxy}pentanoate] | 66 | 33 | 3 |  |  |  | 0.549 |  |
|  | CC(C)OCCn1c(=S)[nH]c(=O)c2c1ccn2COC(=O)CCCOC(=O)[C@H](NC(=O)OC(C)(C)C)C(C)C [Example 355, 4-oxo-4-({4-oxo-1-[2-(propan-2-yloxy)ethyl]-2-sulfanylidene-1H,2H,3H,4H,5H-pyrrolo[3,2-d]pyrimidin-5-yl}methoxy)butyl (2R)-2-{[(tert-butoxy)carbonyl]amino}-3-methylbutanoate] | 100 | 99 | 43 |  |  |  | 2.16 |  |
|  | CC(C)OCCn1c(=S)[nH]c(=O)c2c1ccn2COC(=O)CCCOC(=O)[C@H](N)C(C)C [Example 356, trifluoroacetic acid 4-oxo-4-({4-oxo-1-[2-(propan-2-yloxy)ethyl]-2-sulfanylidene-1H,2H,3H,4H,5H-pyrrolo[3,2-d]pyrimidin-5-yl}methoxy)butyl (2R)-2-amino-3-methylbutanoate] | 25 | 99 | 5 |  |  |  | 11.3 |  |
|  | CC(C)OCCn1c(SCOC(=O)CCCOC(=O)[C@H](N)C(C)C)nc(=O)c2c1ccn2COC(=O)CCCOC(=O)[C@H](N)C(C)C.O=C(O)C(F)(F)F.O=C(O)C(F)(F)F [Example 358, bis(trifluoroacetic acid) 4-(((5-(((4-((D-valyl)oxy)butanoyl)oxy)methyl)-1-(2-isopropoxyethyl)-4-oxo-4,5-dihydro-1H-pyrrolo[3,2-d]pyrimidin-2-yl)thio)methoxy)-4-oxobutyl D-valinate] |  | 80 | 12 |  |  |  | 1.78 | 48 |
|  | CC(C)OCCn1c(=S)[nH]c(=O)c2c1ccn2COC(=O)CCCOC(=O)[C@@H](Cc1ccccc1)NC(=O)OC(C)(C)C [Example 361, {4-oxo-1-[2-(propan-2-yloxy)ethyl]-2-sulfanylidene-1H,2H,3H,4H,5H-pyrrolo[3,2-d]pyrimidin-5-yl}methyl 4-{[(2R)-2-{[(tert-butoxy)carbonyl]amino}-3-phenylpropanoyl]oxy}butanoate] | 9 | 95 | 8 |  |  |  | < 0.31 |  |
|  | CC(C)OCCn1c(=S)[nH]c(=O)c2c1ccn2COC(=O)CCCOC(=O)[C@H](N)Cc1ccccc1.O=C(O)C(F)(F)F [Example 362, trifluoroacetic acid {4-oxo-1-[2-(propan-2-yloxy)ethyl]-2-sulfanylidene-1H,2H,3H,4H,5H-pyrrolo[3,2-d]pyrimidin-5-yl}methyl 4-{[(2R)-2-amino-3-phenylpropanoyl]oxy}butanoate] | 2 | 90 | 3 |  |  |  | 5.12 |  |
|  | CC(C)OCCn1c(SCOC(=O)CCCOC(=O)[C@@H](Cc2ccccc2)NC(=O)OC(C)(C)C)nc(=O)c2c1ccn2COC(=O)CCCOC(=O)[C@@H](Cc1ccccc1)NC(=O)OC(C)(C)C [Example 363, [(5-{[(4-{[(2R)-2-{[(tert-butoxy)carbonyl]amino}-3-phenylpropanoyl]oxy}butanoyl)oxy]methyl}-4-oxo-1-[2-(propan-2-yloxy)ethyl]-1H,4H,5H-pyrrolo[3,2-d]pyrimidin-2-yl)sulfanyl]methyl 4-{[(2R)-2-{[(tert-butoxy)carbonyl]amino}-3-phenylpropanoyl]oxy}butanoate] | 18 | 97 | 42 |  |  |  | 1.63 |  |
|  | CC(C)OCCn1c(SCOC(=O)CCCOC(=O)[C@H](N)Cc2ccccc2)nc(=O)c2c1ccn2COC(=O)CCCOC(=O)[C@H](N)Cc1ccccc1.O=C(O)C(F)(F)F.O=C(O)C(F)(F)F [Example 364, bis(trifluoroacetic acid) [(5-{[(4-{[(2R)-2-amino-3-phenylpropanoyl]oxy}butanoyl)oxy]methyl}-4-oxo-1-[2-(propan-2-yloxy)ethyl]-1H,4H,5H-pyrrolo[3,2-d]pyrimidin-2-yl)sulfanyl]methyl 4-{[(2R)-2-amino-3-phenylpropanoyl]oxy}butanoate] | 1 | 47 | 31 |  |  |  | 0.277 |  |
|  | CC(C)OCCn1c(=S)n(COC(=O)CCCOC(=O)[C@@H](Cc2ccccc2)NC(=O)OC(C)(C)C)c(=O)c2c1ccn2COC(=O)CCCOC(=O)[C@@H](Cc1ccccc1)NC(=O)OC(C)(C)C [Example 365, (3-{[(4-{[(2R)-2-{[(tert-butoxy)carbonyl]amino}-3-phenylpropanoyl]oxy}butanoyl)oxy]methyl}-4-oxo-1-[2-(propan-2-yloxy)ethyl]-2-sulfanylidene-1H,2H,3H,4H,5H-pyrrolo[3,2-d]pyrimidin-5-yl)methyl 4-{[(2R)-2-{[(tert-butoxy)carbonyl]amino}-3-phenylpropanoyl]oxy}butanoate] | 5 | 85 | 11 |  |  |  | < 0.263 |  |
|  | CSCC[C@@H](N)C(=O)OCCC(=O)OCn1ccc2c1c(=O)[nH]c(=S)n2CCOC(C)C.O=C(O)C(F)(F)F [Example 366, trifluoroacetic acid 3-oxo-3-({4-oxo-1-[2-(propan-2-yloxy)ethyl]-2-sulfanylidene-1H,2H,3H,4H,5H-pyrrolo[3,2-d]pyrimidin-5-yl}methoxy)propyl (2R)-2-amino-4-(methylsulfanyl)butanoate] | 2 | 76 | 74 |  |  |  | < 0.76 |  |
|  | CC(C)C[C@H](N)C(=O)OCCC(=O)OCn1ccc2c1c(=O)[nH]c(=S)n2CCOC(C)C.O=C(O)C(F)(F)F [Example 367, trifluoroacetic acid 3-oxo-3-({4-oxo-1-[2-(propan-2-yloxy)ethyl]-2-sulfanylidene-1H,2H,3H,4H,5H-pyrrolo [3,2-d]pyrimidin-5-yl}methoxy)propyl (2S)-2-amino-4-methylpentanoate] | 0 | 100 | 1 |  |  |  | < 0.108 |  |
|  | CC(C)C[C@@H](N)C(=O)OCCC(=O)OCn1ccc2c1c(=O)[nH]c(=S)n2CCOC(C)C.O=C(O)C(F)(F)F [Example 368, trifluoroacetic acid 3-oxo-3-({4-oxo-1-[2-(propan-2-yloxy)ethyl]-2-sulfanylidene-1H,2H,3H,4H,5H-pyrrolo[3,2-d]pyrimidin-5-yl}methoxy)propyl (2R)-2-amino-4-methylpentanoate] | 1 | 100 | 1 |  |  |  | 0.12 |  |
|  | CC(C)OCCn1c(SCOC(=O)OCCOCCNC(=O)OC(C)(C)C)nc(=O)c2[nH]ccc21 [Example 369, 2-{[{{[2-(2-{[(tert-butoxy)carbonyl]amino}ethoxy)eth-oxy]carbonyl}oxy)methyl]sulfanyl}-1-[2-(propan-2-yloxy)ethyl]-1H,4H,5H-pyrrolo[3,2-d]pyrimidin-4-one] | 1 | 89 | 1 |  |  |  | < 0.107 |  |
|  | CSCC[C@@H](NC(=O)OC(C)(C)C)C(=O)NCCOCCOC(=O)OCn1ccc2c1c(=O)[nH]c(=S)n2CCOC(C)C [Example 389, (2R)-2-{[(tert-butoxy)carbonyl]amino}-4-(methylsulfanyl)-N-[2-(2-{[{{4-oxo-1-[2-(propan-2-yloxy)ethyl]-2-sulfanylidene-1H,2H,3H,4H,5H-pyrrolo[3,2-d]pyrimidin-5-yl}methoxy)carbonyl]oxy}ethoxy)eth-yl]butanamide] | 60 | 98 | 1 |  |  |  | 5.94 |  |
